Publication PMC4178217, “Quinoline 3-sulfonamides inhibit lactate dehydrogenase A and reverse aerobic glycolysis in cancer cells” (Cancer & Metabolism, 2013)

Test system: HepG2 cells
Details: HepG2 conditioned medium, 10 μM, 24 h
Description: Ten million Snu398 or HepG2 cells per flask were plated in R10 medium in T150 tissue culture flasks and allowed to attach overnight. The following morning, medium was replaced with medium containing either DMSO or 10 μM LDHA inhibitor, and cells were incubated for 24 h at 37°C. The conditioned medium was collected and cells were washed, lifted by trypsinization and pelleted. Both medium and cell samples were submitted for mass spectroscopy (MS) analysis of over 500 individual metabolites. All samples were prepared in replicates of five.

COc1ncc(-c2ccc3c(Nc4cc(C(=O)O)cc(C5CCCC5)c4)c(S(=O)(=O)NC4CC4)cnc3c2)c(OC)n1 [Compound 2]
fold change asparagine: 0.30 | fold change aspartate: 0.84 | fold change aspartylleucine: 1.01 | fold change beta-alanine: 1.41 | fold change beta-hydroxyisovalerate: 0.84 | fold change beta-hydroxypyruvate: 0.79 | fold change betaine: 0.97 | fold change biotin: 0.96 | fold change butyrylcarnitine: 0.90 | fold change caproate (6:0): 0.83 | fold change caprylate (8:0): 0.79 | fold change carnitine: 1.03 | fold change catechol sulfate: 1.01 | fold change choline: 1.06 | fold change citrate: 0.97 | fold change citrulline: 0.87 | fold change creatine: 1.02 | fold change creatinine: 0.94 | fold change cyclo(leu-ala): 0.49 | fold change cysteine: 0.78 | fold change cysteine sulfinic acid: 1.00 | fold change cysteine-glutathione disulfide: 1.28 | fold change deoxycarnitine: 0.98 | fold change dimethyl sulfoxide*: 1.04 | fold change dimethylarginine (SDMA + ADMA): 0.97 | fold change docosahexaenoate (DHA; 22:6n3): 0.92 | fold change docosapentaenoate (n3 DPA; 22:5n3): 1.17 | fold change erythritol: 0.92 | fold change erythronate*: 0.99 | fold change ethanolamine: 1.13 | fold change folate: 0.99 | fold change fructose: 1.06 | fold change fumarate: 0.80 | fold change gamma-glutamylisoleucine*: 1.02 | fold change gamma-glutamylleucine: 0.87 | fold change gamma-glutamylphenylalanine: 0.85 | fold change gamma-glutamylvaline: 0.73 | fold change glucose: 0.87 | fold change glutamate: 1.00 | fold change glutamine: 0.96 | fold change glycerate: 1.05 | fold change glycerol: 1.09 | fold change glycerol 3-phosphate (G3P): 1.47 | fold change glycerophosphorylcholine (GPC): 0.95 | fold change glycine: 0.87 | fold change glycochenodeoxycholate: 1.01 | fold change glycocholate: 0.96 | fold change glycylglycine: 0.55 | fold change glycylleucine: 0.85 | fold change glycyltyrosine: 1.01 | fold change glycylvaline: 1.06 | fold change heme*: 0.95 | fold change hexadecanedioate: 0.84 | fold change hippurate: 0.98 | fold change histidine: 1.02 | fold change homostachydrine*: 1.00 | fold change hydroquinone: 0.97 | fold change indolelactate: 1.03 | fold change isobutyrylcarnitine: 0.98 | fold change isoleucine: 1.02 | fold change isovalerate: 0.80 | fold change isovalerylcarnitine: 1.29 | fold change kynurenate: 1.06 | fold change kynurenine: 1.00 | fold change lactate: 0.89 | fold change leucine: 1.03 | fold change lysine: 0.70 | fold change lysylleucine: 1.12 | fold change malate: 1.02 | fold change mannitol: 0.57 | fold change methionine: 0.96 | fold change myo-inositol: 0.85 | fold change nicotinamide: 0.80 | fold change ornithine: 0.79 | fold change p-aminobenzoate (PABA): 0.99 | fold change p-cresol sulfate: 0.91 | fold change palmitoyl sphingomyelin: 0.92 | fold change pantothenate: 1.00 | fold change phenol red: 0.97 | fold change phenol sulfate: 0.93 | fold change phenylacetylglycine: 1.02 | fold change phenylalanine: 0.98 | fold change phosphate: 0.99 | fold change pipecolate: 0.97 | fold change pro-hydroxy-pro: 0.98 | fold change proline: 0.93 | fold change propionylcarnitine: 1.00 | fold change pseudouridine: 0.96 | fold change putrescine: 0.90 | fold change pyridoxate: 0.92 | fold change pyridoxine (Vitamin B6): 1.04 | fold change pyruvate: 1.37 | fold change ribitol: 0.75 | fold change riboflavin (Vitamin B2): 0.98 | fold change scyllo-inositol: 1.09 | fold change serine: 0.61 | fold change serotonin (5HT): 0.82 | fold change sorbitol: 0.53 | fold change succinate: 1.07 | fold change taurocholate: 1.00 | fold change taurodeoxycholate: 0.93 | fold change tetradecanedioate: 1.13 | fold change thiamin (Vitamin B1): 1.00 | fold change threitol: 0.99 | fold change threonine: 0.96 | fold change trans-4-hydroxyproline: 0.90 | fold change tryptophan: 1.03 | fold change tyrosine: 0.99 | fold change uracil: 0.88 | fold change urea: 0.83 | fold change uridine: 0.93 | fold change valerylcarnitine: 1.27 | fold change valine: 0.98 | fold change xylitol: 0.88
